# Patent publication US20260216362A1, “ANTI-BDCA2 ANTIBODY-DRUG CONJUGATE AND USE THEREOF” (DUALITY BIOLOGICS (SHANGHAI) CO., LTD., priority 2022, published 2026)
# How the values were obtained:
# [1] = test system: human peripheral blood mononuclear cells; assay: Inhibition of R848-induced TNF-α production from human peripheral blood mononuclear cells by BDCA2-ADC; assay type: cell-based; details: 5 μM R848, 24 h
# Experimental: (§1) The inhibitory effects of the antibody-drug conjugate molecules of the present application on the production from peripheral blood mononuclear cells were detected. Peripheral blood mononuclear cells produce a large number of cytokines after the stimulation of the TLR7/8 agonist R848. The peripheral blood mononuclear cells were treated in vitro with the BDCA2 antibody-drug conjugate at different concentrations, and IFNα and TNFα produced by the peripheral blood mononuclear cells were quantitatively detected after the stimulation of 5 μM R848 for a certain period of time. The in vitro activity of the ligand-drug conjugates was evaluated based on the extent of cytokine inhibition.
# (§2) The cryopreserved human peripheral blood mononuclear cells were thawed, resuspended in a complete culture medium and counted, and the cell suspension was adjusted to 2.5×10^6 cells/mL with the culture medium and cultured overnight. […] The supernatant was collected, and the TNF-α and IFN-α concentration levels in the supernatant were detected using an ELISA kit. Dose-response data were fitted to an S-shaped curve using non-linear regression, and IC50 values were calculated.
# (§3) TNF-α concentration assay was performed using a Dakewe TNF-α ELISA kit (Cat. No. 1117202). […] The reading at wavelength 450 nm was detected using an M2e instrument within 10 min after the termination. […]
# [2] = test system: human peripheral blood mononuclear cells; assay: Inhibition of CpG-A-induced TNF-α production from human peripheral blood mononuclear cells by BDCA2-ADC; assay type: cell-based; details: 0.5 μM CpG-A, 24 h
# Experimental: as §1, with “TLR9” for “TLR7/8”, “CpG-A.” for “R848.”, “0.5” for “5”, “CpG-A” for “R848”
# as §2, §3
substance,measurement,setting,value
"BIIB059: reference antibody specifically binding to BDCA2, sequence derived from U.S. Pat. No. 9,902,775B2; SEQ ID NO: 25 and 26 [reference compound]",inhibitory effect on TNF-α secretion,[1],did not have an inhibitory effect
same,inhibitory effect on TNF-α secretion,[2],did not have an inhibitory effect
